Drawing on PubChem BioAssay AID624369 (Broad Institute, 2012), this text covers AC35 and activity change, negative = inhibition for 60 molecules.

Assay [1] concerns HEK293 LMP1 TES2 NF-kB luciferase reporter, 16 h. Nature of the assay: TNFa-induced NF-kB reporter signal decrease – HEK293 LMP1 reporter cells, dry powder, set 2, selectivity assay for EBV LMP1 NF-kB inhibitor project, dose response (AID 624369).
Test in assay [2]: as above
Conditions: HEK293 LMP1 TES2 NF-kB luciferase reporter, 16 h. For orientation: A reporter such as luciferase makes a cellular process visible.

The structures appear in SMILES notation. Results filed as inconclusive are left out. Active and inactive are the calls of the source.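 The calls were made as follows: active = fitted curve crosses a set inhibition level at a dose up to twice the top tested dose; inconclusive = flat curve with moderate inhibition, or an unreliable curve fit; inactive = the rest, including signal rising instead of falling.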

`O=C(C[C@@H]1CC[C@@H]2[C@H](COC[C@H](O)CN2Cc2ccc3c(c2)OCO3)O1)Nc1ccc(-c2ccccc2)cc1`: the AC35 in assay [1] was 10.7 µM.

`CN1C(=O)c2cc(NC(=O)c3ccc(C(F)(F)F)cc3)ccc2OC[C@@H]2O[C@@H](CC(=O)NC3Cc4ccccc4C3)CC[C@H]21`: the AC35 in assay [1] is 25.7 µM.

As to `CC(=O)N(C)C[C@@H]1Oc2cc(C#Cc3ccc(F)cc3)ccc2S(=O)(=O)N([C@H](C)CO)C[C@H]1C`, the AC35 in assay [1] was 34 µM.

Take `CN(C)c1ccc2c(c1)[C@@H]1C[C@H](CC(=O)NCc3ccc(Oc4ccccc4)cc3)O[C@@H](CO)[C@@H]1O2`: the AC35 in assay [1] was 21.7 µM.

Turning to `COc1ccc(CNC(=O)c2cc3c(c(-c4cccc(-c5ccc(C#N)cc5)c4)n2)[C@@H](CCO)N([S@](=O)C(C)(C)C)C3)cc1`, the AC35 in assay [1] was 19.5 µM.

Consider `COc1cccc(-c2cccc(-c3nc(C(=O)NCC(F)(F)F)cc4c3[C@H](CCO)N([S@@](=O)C(C)(C)C)C4)c2)c1`, for which the AC35 in assay [1] is 5.24 µM.

Regarding `C[C@H]1CN([C@@H](C)CO)S(=O)(=O)c2ccc(C#Cc3ccncc3)cc2O[C@H]1CN(C)C(=O)Nc1ccc2c(c1)OCO2`, the AC35 in assay [1] is 15.3 µM.

As to `CN(C)C(=O)c1cccc(-c2cccc(-c3nc(C(=O)NCc4ccccc4)cc4c3[C@@H](CCO)N([S@](=O)C(C)(C)C)C4)c2)c1`, in assay [1], the AC35 was 10.3 µM.

In the case of `CC(C)NC(=O)N1Cc2cc(C(=O)NC3Cc4ccccc4C3)nc(-c3cccc(-c4cccnc4)c3)c2[C@@H]1CCO`, in assay [1], the AC35 is 18.5 µM.

In the case of `N#C[C@H]1[C@@H](c2ccc(-c3cccnc3)cc2)[C@@H](CO)N1C(=O)Nc1ccc(F)cc1`, the AC35 in assay [1] is 16.9 µM.

Turning to `CN(C)c1ccc2c(c1)[C@@H]1C[C@@H](CC(=O)NCc3ccc(Oc4ccccc4)cc3)O[C@H](CO)[C@@H]1O2`, the AC35 in assay [1] is 10.3 µM.

Consider `C[C@@H]1CN([C@@H](C)CO)S(=O)(=O)c2ccc(C#Cc3ccncc3)cc2O[C@H]1CN(C)C(=O)Nc1ccc2c(c1)OCO2`, for which, in assay [1], the AC35 was 21.4 µM.

For `CN(C)C(=O)c1ccc(-c2cccc(-c3nc(C(=O)NCc4ccccc4)cc4c3[C@@H](CCO)N([S@](=O)C(C)(C)C)C4)c2)cc1`, the AC35 in assay [1] is 10.7 µM.

For `O=C(C[C@@H]1C[C@@H]2c3cc(NC(=O)c4ccc5c(c4)OCO5)ccc3O[C@@H]2[C@@H](CO)O1)NCc1ccc(Oc2ccccc2)cc1`, the AC35 in assay [1] is 14.2 µM.

As for `N#C[C@H]1[C@H](c2ccc(C#Cc3ccccc3F)cc2)[C@H](CO)N1C(=O)c1cccnc1`, the AC35 in assay [1] was 31.3 µM.

For `COc1ccccc1C#Cc1ccc2c(c1)O[C@H](CN(C)Cc1cccnc1)[C@H](C)CN([C@H](C)CO)S2(=O)=O`, the AC35 in assay [1] is 20.7 µM.

In the case of `CC(C)(C)[S@@](=O)N1Cc2cc(C(=O)NCc3ccccc3F)nc(-c3cccc(-c4cccnc4)c3)c2[C@H]1CCO`, in assay [1], the AC35 was 12.7 µM.

Take `Cc1cc(C(=O)Nc2ccc3c(c2)C(=O)N(C)[C@@H]2CC[C@H](CC(=O)NCc4ccc(-c5ccccc5)cc4)O[C@@H]2CO3)no1`: in assay [1], the AC35 was 6.74 µM.

With `COc1ccccc1C#Cc1cnc2c(c1)C(=O)N([C@H](C)CO)C[C@H](C)[C@@H](CN(C)C(=O)c1ccc3c(c1)OCO3)O2`, the AC35 in assay [1] was 34.3 µM.

`COc1ccc(S(=O)(=O)N(C)C[C@H]2Oc3ncc(/C=C/c4ccccc4)cc3C(=O)N([C@H](C)CO)C[C@@H]2C)cc1`: in assay [1], the AC35 is 21.9 µM.

For `COc1ccccc1C#Cc1ccc2c(c1)O[C@H](CN(C)Cc1cccnc1)[C@@H](C)CN([C@@H](C)CO)S2(=O)=O`, the AC35 in assay [1] was 26.6 µM.

`COc1ccccc1C#Cc1ccc([C@H]2[C@H](C#N)N(C(=O)C3CC3)[C@H]2CO)cc1`: the AC35 in assay [1] is 27 µM.

On to `O=C(C[C@@H]1C[C@H]2c3cc(NS(=O)(=O)c4ccc(F)cc4)ccc3O[C@H]2[C@@H](CO)O1)NCc1ccc(Oc2ccccc2)cc1`, for which the AC35 in assay [1] is 19.5 µM.

Take `C[C@@H](NC(=O)C[C@H]1C=C[C@H](NC(=O)Cc2ccccn2)[C@@H](CO)O1)c1ccccc1`: in assay [2] (at 35 µM (top of the series)), the activity change, negative = inhibition is 0.235% (inactive).

Take `O=C(Cc1ccccn1)NCC[C@@H]1CC[C@@H](NC(=O)Nc2ccc(Cl)cc2)[C@@H](CO)O1`: in assay [2] (at 35 µM (top of the series)), the activity change, negative = inhibition is 2.08% (inactive).

On to `C[C@@H](NC(=O)C[C@H]1C=C[C@@H](NC(=O)Cc2ccccn2)[C@@H](CO)O1)c1ccccc1`, for which the activity change, negative = inhibition in assay [2] (at 35 µM (top of the series)) was -2.43% (inactive).

With `N#C[C@@H]1[C@H](c2ccc(C#Cc3ccccc3F)cc2)[C@@H](CO)N1C(=O)c1cccnc1`, the AC35 in assay [1] was 2.04 µM.

As to `O=C(C[C@H]1C[C@H]2c3cc(NS(=O)(=O)c4ccc(F)cc4)ccc3O[C@H]2[C@H](CO)O1)NCc1ccc(Oc2ccccc2)cc1`, the AC35 in assay [1] was 9.13 µM.

Take `CC(C)(C)[S@@](=O)N1Cc2cc(C(=O)NCc3ccccn3)nc(-c3cccc(-c4ccccc4F)c3)c2[C@H]1CCO`: the AC35 in assay [1] is 26.1 µM.

Consider `C[C@H](NC(=O)C[C@H]1C[C@@H]2c3cc(NC(=O)c4cccnc4)ccc3O[C@@H]2[C@@H](CO)O1)c1ccccc1`, for which the activity change, negative = inhibition in assay [2] (at 35 µM (top of the series)) was -8.72% (inactive).

As for `C[C@@H](NC(=O)C[C@H]1C[C@@H]2c3cc(NC(=O)c4cccnc4)ccc3O[C@@H]2[C@@H](CO)O1)c1ccccc1`, the AC35 in assay [1] was > 35 µM (inactive).

Consider `Cc1ccc(S(=O)(=O)N(C)C[C@H]2Oc3cc(C#Cc4ccncc4)ccc3S(=O)(=O)N([C@@H](C)CO)C[C@@H]2C)cc1`, for which, in assay [1], the AC35 is 10.2 µM.

As to `COc1ccc(NC(=O)N(C)C[C@@H]2Oc3cc(C#CCC(C)C)ccc3S(=O)(=O)N([C@@H](C)CO)C[C@@H]2C)cc1`, the activity change, negative = inhibition in assay [2] (at 35 µM (top of the series)) was 14.6% (inactive).

With `Cc1cc(C(=O)Nc2ccc3c(c2)C(=O)N(C)[C@@H]2CC[C@@H](CC(=O)NCc4ccc(-c5ccccc5)cc4)O[C@H]2CO3)no1`, in assay [1], the AC35 was 12.4 µM.

`O=C(C[C@@H]1CC[C@@H]2[C@H](COC[C@@H](O)CN2Cc2ccc(Oc3ccccc3)cc2)O1)N1CCc2ccccc2C1`: the AC35 in assay [1] is 8.89 µM.

Regarding `O=C(Cc1ccccn1)NCC[C@H]1CC[C@@H](NC(=O)Nc2ccc(Cl)cc2)[C@H](CO)O1`, the activity change, negative = inhibition in assay [2] (at 35 µM (top of the series)) is -8.81% (inactive).

As to `N#C[C@H]1[C@H](c2ccc(C#Cc3ccccc3F)cc2)[C@@H](CO)N1C(=O)c1cccnc1`, in assay [1], the AC35 was 20.1 µM.

For `COc1ccccc1C#Cc1cnc2c(c1)C(=O)N([C@@H](C)CO)C[C@H](C)[C@@H](CN(C)C(=O)c1ccc3c(c1)OCO3)O2`, the AC35 in assay [1] was 27.9 µM.

Consider `C[C@@H]1CN([C@H](C)CO)C(=O)c2c(c3ccccc3n2C)-c2ccccc2CO[C@H]1CN(C)C(=O)Nc1ccc(F)cc1`, for which, in assay [2] (at 35 µM (top of the series)), the activity change, negative = inhibition was 30% (inactive).

Regarding `O=C(Cc1ccccn1)NCC[C@@H]1CC[C@H](NC(=O)Nc2ccc(Cl)cc2)[C@@H](CO)O1`, the activity change, negative = inhibition in assay [2] (at 35 µM (top of the series)) is 0.116% (inactive).

For `CC(C)NC(=O)N1Cc2cc(C(=O)NC3Cc4ccccc4C3)nc(-c3cccc(-c4cccnc4)c3)c2[C@H]1CCO`, the AC35 in assay [1] is 29.1 µM.

For `O=C(C[C@@H]1CC[C@@H]2[C@H](COC[C@@H](O)CN2Cc2ccc3c(c2)OCO3)O1)Nc1ccc(-c2ccccc2)cc1`, the AC35 in assay [1] was 11.2 µM.

As for `Cc1ccc(S(=O)(=O)N(C)C[C@H]2Oc3cc(C#Cc4ccncc4)ccc3S(=O)(=O)N([C@@H](C)CO)C[C@H]2C)cc1`, the AC35 in assay [1] was 16.4 µM.

Take `CC(C)(C)[S@](=O)N1Cc2cc(C(=O)NCC(F)(F)F)nc(-c3cccc(-c4cccc(F)c4)c3)c2[C@@H]1CCO`: the AC35 in assay [1] was 8.65 µM.

Take `O=C(Cc1ccccn1)NCC[C@@H]1CC[C@H](NC(=O)Nc2ccc(Cl)cc2)[C@H](CO)O1`: the activity change, negative = inhibition in assay [2] (at 35 µM (top of the series)) was 1.35% (inactive).

For the molecule `O=C(C[C@H]1C[C@@H]2c3cc(NS(=O)(=O)c4ccc(F)cc4)ccc3O[C@@H]2[C@@H](CO)O1)NCc1ccc(Oc2ccccc2)cc1`, the AC35 in assay [1] is 16.7 µM.

On to `C[C@H]1CN([C@@H](C)CO)C(=O)c2c(c3ccccc3n2C)-c2ccccc2CO[C@@H]1CN(C)C(=O)Nc1ccc(F)cc1`, for which, in assay [2] (at 35 µM (top of the series)), the activity change, negative = inhibition is 1.28% (inactive).

With `O=C(Cc1ccccn1)NCC[C@H]1CC[C@H](NC(=O)Nc2ccc(Cl)cc2)[C@@H](CO)O1`, the activity change, negative = inhibition in assay [2] (at 35 µM (top of the series)) was -0.241% (inactive).

Regarding `C[C@H](NC(=O)C[C@H]1C=C[C@H](NC(=O)Cc2ccccn2)[C@@H](CO)O1)c1ccccc1`, the activity change, negative = inhibition in assay [2] (at 35 µM (top of the series)) is -2.25% (inactive).

For the molecule `C[C@@H](NC(=O)C[C@@H]1C=C[C@H](NC(=O)Cc2ccccn2)[C@@H](CO)O1)c1ccccc1`, in assay [2] (at 35 µM (top of the series)), the activity change, negative = inhibition was 4.33% (inactive).

With `C[C@H](NC(=O)C[C@H]1C=C[C@@H](NC(=O)Cc2ccccn2)[C@H](CO)O1)c1ccccc1`, the activity change, negative = inhibition in assay [2] (at 35 µM (top of the series)) is -0.458% (inactive).

Turning to `C[C@@H]1CN([C@@H](C)CO)C(=O)Cc2cc(NC(=O)Cc3ccccc3)ccc2O[C@H]1CN(C)Cc1ccc(C(F)(F)F)cc1`, the activity change, negative = inhibition in assay [2] (at 35 µM (top of the series)) is 29.3% (inactive).

With `CO[C@H]1CN(C)C(=O)c2ccc(NC(=O)C3CC3)cc2OC[C@H](C)N(C(=O)c2ccccn2)C[C@H]1C`, the activity change, negative = inhibition in assay [2] (at 35 µM (top of the series)) is -5.44% (inactive).

For `C[C@@H](NC(=O)C[C@H]1C=C[C@H](NC(=O)Cc2ccccn2)[C@H](CO)O1)c1ccccc1`, in assay [2] (at 35 µM (top of the series)), the activity change, negative = inhibition is 3.96% (inactive).

As for `Cc1noc(C)c1S(=O)(=O)Nc1ccc2c(c1)C(=O)N([C@@H](C)CO)C[C@H](C)[C@H](CN(C)Cc1ccc(C(F)(F)F)cc1)OCCCC[C@@H](C)O2`, the activity change, negative = inhibition in assay [2] (at 30 µM (top of the series)) was 83.8% (inactive).

Turning to `C[C@H](CO)N1C[C@H](C)[C@@H](CN(C)S(=O)(=O)c2cccc(F)c2)Oc2ncc(C#CC3CCCCC3)cc2C1=O`, the activity change, negative = inhibition in assay [2] (at 35 µM (top of the series)) was 1.93% (inactive).

`C[C@H](CO)N1C[C@H](C)[C@H](CN(C)Cc2ccc(Oc3ccccc3)cc2)Oc2ccc(NC(=O)CCCN(C)C)cc2C1=O`: the activity change, negative = inhibition in assay [2] (at 35 µM (top of the series)) is 20.6% (inactive).

Consider `C[C@H](NC(=O)C[C@@H]1C=C[C@@H](NC(=O)Cc2ccccn2)[C@@H](CO)O1)c1ccccc1`, for which, in assay [2] (at 35 µM (top of the series)), the activity change, negative = inhibition was -1.02% (inactive).

As to `COc1cccc(S(=O)(=O)N(C)C[C@H]2Oc3cc(C4=CCCCC4)ccc3S(=O)(=O)N([C@H](C)CO)C[C@H]2C)c1`, the activity change, negative = inhibition in assay [2] (at 35 µM (top of the series)) was 26.9% (inactive).

With `Cc1noc(C)c1S(=O)(=O)Nc1ccc2c(c1)C(=O)N([C@@H](C)CO)C[C@H](C)[C@@H](CN(C)Cc1ccc(C(F)(F)F)cc1)OCCCC[C@@H](C)O2`, the activity change, negative = inhibition in assay [2] (at 35 µM (top of the series)) is -1.88% (inactive).
